Assay: Dissociation constant for binding affinity towards Concanavalin A determined by fluorescence anisotropy inhibition assay

| SMILES | Kd |
| --- | --- |
| CO[C@H]1O[C@@H](CO[C@H]2O[C@@H](CO)[C@@H](O)[C@H](O)[C@H]2O)[C@@H](O)[C@H](O)[C@H]1O | 150 µM |
| CO[C@H]1O[C@@H](CO)[C@@H](O)[C@H](O[C@H]2O[C@@H](CO)[C@@H](O)[C@H](O)[C@H]2O)[C@H]1O | 49 µM |
| CO[C@H]1O[C@@H](CO[C@H]2S[C@@H](CO)[C@@H](O)[C@H](O)[C@H]2O)[C@@H](O)[C@H](O)[C@H]1O | 1280 µM |
| CO[C@H]1O[C@@H](CO[C@H]2O[C@@H](CO)[C@@H](O)[C@H](O)[C@H]2O)[C@@H](O)[C@H](O[C@H]2O[C@@H](CO)[C@@H](O)[C@H](O)[C@H]2O)[C@H]1O | 3 µM |
| CO[C@H]1O[C@@H](CO[C@H]2O[C@@H](CO)[C@@H](O)[C@H](O)[C@H]2O)[C@@H](O)[C@H](O[C@H]2S[C@@H](CO)[C@@H](O)[C@H](O)[C@H]2O)[C@H]1O | 7 µM |
| CO[C@H]1O[C@@H](CO)[C@@H](O)[C@H](O[C@H]2S[C@@H](CO)[C@@H](O)[C@H](O)[C@H]2O)[C@H]1O | 1720 µM |
| CO[C@H]1O[C@@H](CO[C@H]2S[C@@H](CO)[C@@H](O)[C@H](O)[C@H]2O)[C@@H](O)[C@H](O[C@H]2S[C@@H](CO)[C@@H](O)[C@H](O)[C@H]2O)[C@H]1O | 376 µM |
| CO[C@H]1O[C@@H](CO[C@H]2S[C@@H](CO)[C@@H](O)[C@H](O)[C@H]2O)[C@@H](O)[C@H](O[C@H]2O[C@@H](CO)[C@@H](O)[C@H](O)[C@H]2O)[C@H]1O | 18 µM |
